“And” between values parts separate entries of the source, which are not always exact repeats. Identical values can stand only once. Toxic doses and inconclusive results are not listed. Rule as the data show it: active = T/C of 150% or more; inactive = T/C below 125%.
Test system: L1210 leukemia ip in BDF1 mice, survival T/C
Test: NCI In Vivo Anticancer Drug Screen. Data for tumor model L1210 Leukemia (intraperitoneal) in B6D2F1 (BDF1) mice
Conditions: higher = longer survival
Procedure, shortened: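 Each compound was tested against a transplantable tumor grown in mice. The endpoint was survival, with treated animals benchmarked against vehicle controls as a simple ratio.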

Measured: T/C

C[C@]12C=CC(=O)C=C1CC[C@@H]1[C@@H]2C(=O)C[C@@]2(C)[C@H]1CC[C@]2(O)C(=O)CO
inactive: endpoint: mean survival time, dose: 0.25 mg/kg/injection, schedule: Q01DX009 (ip), vehicle: water 99 % of control | endpoint: mean survival time, dose: 0.5 mg/kg/injection, schedule: Q01DX009 (ip), vehicle: water 103 % of control | endpoint: mean survival time, dose: 1.0 mg/kg/injection, schedule: Q01DX009 (ip), vehicle: water 96 % of control and 97 % of control | endpoint: mean survival time, dose: 2.0 mg/kg/injection, schedule: Q01DX009 (ip), vehicle: water 99 % of control and 101 % of control | endpoint: mean survival time, dose: 2.5 mg/kg/injection, schedule: Q01DX009 (ip), vehicle: water 101 % of control | endpoint: mean survival time, dose: 5.0 mg/kg/injection, schedule: Q01DX009 (ip), vehicle: water 104 % of control | endpoint: mean survival time, dose: 6.25 mg/kg/injection, schedule: Q01DX014 (sc), vehicle: steriod suspending solution 103 % of control and 104 % of control | endpoint: mean survival time, dose: 12.5 mg/kg/injection, schedule: Q01DX014 (sc), vehicle: steriod suspending solution 100 % of control and 109 % of control | endpoint: mean survival time, dose: 25.0 mg/kg/injection, schedule: Q01DX014 (sc), vehicle: steriod suspending solution 103 % of control and 105 % of control | endpoint: mean survival time, dose: 25.0 mg/kg/injection, schedule: Q01DX Z (sc), vehicle: steriod suspending solution 97 % of control and 102 % of control and 108 % of control | endpoint: mean survival time, dose: 50.0 mg/kg/injection, schedule: Q01DX009 (ip), vehicle: saline with Tween-80 102 % of control | endpoint: mean survival time, dose: 50.0 mg/kg/injection, schedule: Q01DX Z (sc), vehicle: steriod suspending solution 100 % of control (2×) and 112 % of control | endpoint: mean survival time, dose: 100.0 mg/kg/injection, schedule: Q01DX009 (ip), vehicle: Klucel (hydroxypropylcellulose) (HPC) 107 % of control | endpoint: mean survival time, dose: 100.0 mg/kg/injection, schedule: Q01DX009 (ip), vehicle: saline with Tween-80 97 % of control | endpoint: mean survival time, dose: 100.0 mg/kg/injection, schedule: Q01DX009 (ip), vehicle: saline 100 % of control | endpoint: mean survival time, dose: 100.0 mg/kg/injection, schedule: Q01DX009 (ip), vehicle: steriod suspending solution 104 % of control | endpoint: mean survival time, dose: 100.0 mg/kg/injection, schedule: Q01DX009 (sc), vehicle: Klucel (hydroxypropylcellulose) (HPC) 91 % of control | endpoint: mean survival time, dose: 100.0 mg/kg/injection, schedule: Q01DX009 (sc), vehicle: saline 97 % of control | endpoint: mean survival time, dose: 100.0 mg/kg/injection, schedule: Q01DX009 (sc), vehicle: steriod suspending solution 100 % of control | endpoint: mean survival time, dose: 100.0 mg/kg/injection, schedule: Q01DX Z (sc), vehicle: steriod suspending solution 98 % of control and 101 % of control | endpoint: mean survival time, dose: 100.0 mg/kg/injection, schedule: Q04DX003 (ip), vehicle: saline with Tween-80 106 % of control | endpoint: mean survival time, dose: 120.0 mg/kg/injection, schedule: Q01DX001 (sc), vehicle: steriod suspending solution 106 % of control | endpoint: mean survival time, dose: 180.0 mg/kg/injection, schedule: Q01DX001 (sc), vehicle: steriod suspending solution 107 % of control | endpoint: mean survival time, dose: 200.0 mg/kg/injection, schedule: Q01DX009 (ip), vehicle: Klucel (hydroxypropylcellulose) (HPC) 100 % of control | endpoint: mean survival time, dose: 200.0 mg/kg/injection, schedule: Q01DX009 (ip), vehicle: saline with Tween-80 102 % of control | endpoint: mean survival time, dose: 200.0 mg/kg/injection, schedule: Q01DX009 (ip), vehicle: saline 104 % of control | endpoint: mean survival time, dose: 200.0 mg/kg/injection, schedule: Q01DX009 (ip), vehicle: steriod suspending solution 104 % of control | endpoint: mean survival time, dose: 200.0 mg/kg/injection, schedule: Q01DX009 (sc), vehicle: Klucel (hydroxypropylcellulose) (HPC) 110 % of control | endpoint: mean survival time, dose: 200.0 mg/kg/injection, schedule: Q01DX009 (sc), vehicle: saline 105 % of control | endpoint: mean survival time, dose: 200.0 mg/kg/injection, schedule: Q01DX009 (sc), vehicle: steriod suspending solution 102 % of control | endpoint: mean survival time, dose: 200.0 mg/kg/injection, schedule: Q01DX Z (sc), vehicle: steriod suspending solution 94 % of control and 96 % of control | endpoint: mean survival time, dose: 200.0 mg/kg/injection, schedule: Q04DX003 (ip), vehicle: saline with Tween-80 98 % of control | endpoint: mean survival time, dose: 240.0 mg/kg/injection, schedule: Q01DX001 (sc), vehicle: steriod suspending solution 104 % of control | endpoint: mean survival time, dose: 400.0 mg/kg/injection, schedule: Q01DX009 (ip), vehicle: Klucel (hydroxypropylcellulose) (HPC) 100 % of control | endpoint: mean survival time, dose: 400.0 mg/kg/injection, schedule: Q01DX009 (ip), vehicle: saline 101 % of control | endpoint: mean survival time, dose: 400.0 mg/kg/injection, schedule: Q01DX009 (ip), vehicle: steriod suspending solution 89 % of control | endpoint: mean survival time, dose: 400.0 mg/kg/injection, schedule: Q01DX009 (sc), vehicle: Klucel (hydroxypropylcellulose) (HPC) 97 % of control | endpoint: mean survival time, dose: 400.0 mg/kg/injection, schedule: Q01DX009 (sc), vehicle: saline 109 % of control | endpoint: mean survival time, dose: 400.0 mg/kg/injection, schedule: Q01DX009 (sc), vehicle: steriod suspending solution 96 % of control | endpoint: mean survival time, dose: 400.0 mg/kg/injection, schedule: Q01DX Z (sc), vehicle: steriod suspending solution 100 % of control | endpoint: mean survival time, dose: 400.0 mg/kg/injection, schedule: Q04DX003 (ip), vehicle: saline with Tween-80 104 % of control | endpoint: mean survival time, dose: 500.0 mg/kg/injection, schedule: Q01DX001 (ip), vehicle: water 98 % of control and 103 % of control | endpoint: mean survival time, dose: 800.0 mg/kg/injection, schedule: Q01DX009 (ip), vehicle: Klucel (hydroxypropylcellulose) (HPC) 105 % of control | endpoint: mean survival time, dose: 800.0 mg/kg/injection, schedule: Q01DX009 (ip), vehicle: saline 110 % of control | endpoint: mean survival time, dose: 800.0 mg/kg/injection, schedule: Q01DX009 (ip), vehicle: steriod suspending solution 95 % of control | endpoint: mean survival time, dose: 800.0 mg/kg/injection, schedule: Q01DX009 (sc), vehicle: Klucel (hydroxypropylcellulose) (HPC) 103 % of control | endpoint: mean survival time, dose: 800.0 mg/kg/injection, schedule: Q01DX009 (sc), vehicle: saline 104 % of control | endpoint: mean survival time, dose: 800.0 mg/kg/injection, schedule: Q01DX009 (sc), vehicle: steriod suspending solution 102 % of control | endpoint: mean survival time, dose: 1000.0 mg/kg/injection, schedule: Q01DX001 (ip), vehicle: water 97 % of control and 102 % of control | endpoint: mean survival time, dose: 2000.0 mg/kg/injection, schedule: Q01DX001 (ip), vehicle: water 96 % of control and 109 % of control | endpoint: median survival time, dose: 25.0 mg/kg/injection, schedule: Q01DX009 (ip), vehicle: water 100 % of control and 90 % of control | endpoint: median survival time, dose: 50.0 mg/kg/injection, schedule: Q01DX009 (ip), vehicle: water 95 % of control and 100 % of control | endpoint: median survival time, dose: 100.0 mg/kg/injection, schedule: Q01DX009 (ip), vehicle: water 95 % of control and 100 % of control | endpoint: median survival time, dose: 108.0 mg/kg/injection, schedule: Q01DX009 (ip), vehicle: water 100 % of control and 90 % of control | endpoint: median survival time, dose: 180.0 mg/kg/injection, schedule: Q01DX009 (ip), vehicle: water 95 % of control and 90 % of control | endpoint: median survival time, dose: 200.0 mg/kg/injection, schedule: Q01DX009 (ip), vehicle: water 95 % of control and 100 % of control | endpoint: median survival time, dose: 300.0 mg/kg/injection, schedule: Q01DX009 (ip), vehicle: water 100 % of control | endpoint: median survival time, dose: 375.0 mg/kg/injection, schedule: Q01DX001 (ip), vehicle: water 100 % of control | endpoint: median survival time, dose: 400.0 mg/kg/injection, schedule: Q01DX009 (ip), vehicle: water 95 % of control and 110 % of control | endpoint: median survival time, dose: 400.0 mg/kg/injection, schedule: Q04DX003 (ip), vehicle: saline 111 % of control | endpoint: median survival time, dose: 500.0 mg/kg/injection, schedule: Q01DX009 (ip), vehicle: water 90 % of control | endpoint: median survival time, dose: 600.0 mg/kg/injection, schedule: Q04DX003 (ip), vehicle: saline 104 % of control | endpoint: median survival time, dose: 750.0 mg/kg/injection, schedule: Q01DX001 (ip), vehicle: water 100 % of control | endpoint: median survival time, dose: 800.0 mg/kg/injection, schedule: Q01DX009 (ip), vehicle: water 100 % of control | endpoint: median survival time, dose: 833.0 mg/kg/injection, schedule: Q01DX009 (ip), vehicle: water 90 % of control | endpoint: median survival time, dose: 1388.0 mg/kg/injection, schedule: Q01DX009 (ip), vehicle: water 90 % of control | endpoint: median survival time, dose: 1500.0 mg/kg/injection, schedule: Q01DX001 (ip), vehicle: water 100 % of control | endpoint: median survival time, dose: 3000.0 mg/kg/injection, schedule: Q01DX001 (ip), vehicle: water 100 % of control and 102 % of control

COC1CCC2CCN(C)C(Cc3ccc(Oc4ccc(CC5C6CC(OC)CCC6CCN5C)cc4)cc3)C2C1 (configuration not stated)
inactive: endpoint: mean survival time, dose: 0.39 mg/kg/injection, schedule: Q01DX009 (ip), vehicle: saline with Tween-80 96 % of control | endpoint: mean survival time, dose: 0.78 mg/kg/injection, schedule: Q01DX009 (ip), vehicle: saline with Tween-80 96 % of control and 108 % of control | endpoint: mean survival time, dose: 1.56 mg/kg/injection, schedule: Q01DX009 (ip), vehicle: saline with Tween-80 108 % of control | endpoint: mean survival time, dose: 3.13 mg/kg/injection, schedule: Q01DX009 (ip), vehicle: saline with Tween-80 102 % of control

Reference: PubChem BioAssay AID248 (DTP/NCI, 2004)
